Data taken from the supplement of paper PMC13380429.

Experiments:
Conditions in all cases: 72 h
U2OS [1] = assay: cell viability relative to DMSO; higher = less toxic
Caco-2 [2] = assay: as above
HepG2 [3] = assay: as above
Calu-3 [4] = assay: as above
Vero E6 [5] = assay: as above
U2OS [6] = assay: drug sensitivity score (DSS) for viability; higher = more toxic; extreme values may be limits of the assay
Caco-2 [7] = assay: as above
HepG2 [8] = assay: as above
Calu-3 [9] = assay: as above
Vero E6 [10] = assay: as above
U2OS [11] = assay: relative viability EC50 (midpoint between 100% and the lowest measured viability); higher = less toxic
Caco-2 [12] = assay: as above
HepG2 [13] = assay: as above
Calu-3 [14] = assay: as above
Vero E6 [15] = assay: as above

Row | SMILES | cell viability (U2OS [1]; 1 nM) | cell viability (U2OS [1]; 10 nM) | cell viability (U2OS [1]; 100 nM) | cell viability (U2OS [1]; 1000 nM) | cell viability (U2OS [1]; 10000 nM) | cell viability (Caco-2 [2]; 1 nM) | cell viability (Caco-2 [2]; 10 nM) | cell viability (Caco-2 [2]; 100 nM) | cell viability (Caco-2 [2]; 1000 nM) | cell viability (Caco-2 [2]; 10000 nM) | cell viability (HepG2 [3]; 1 nM) | cell viability (HepG2 [3]; 10 nM) | cell viability (HepG2 [3]; 100 nM) | cell viability (HepG2 [3]; 1000 nM) | cell viability (HepG2 [3]; 10000 nM) | cell viability (Calu-3 [4]; 1 nM) | cell viability (Calu-3 [4]; 10 nM) | cell viability (Calu-3 [4]; 100 nM) | cell viability (Calu-3 [4]; 1000 nM) | cell viability (Calu-3 [4]; 10000 nM) | cell viability (Vero E6 [5]; 1 nM) | cell viability (Vero E6 [5]; 10 nM) | cell viability (Vero E6 [5]; 100 nM) | cell viability (Vero E6 [5]; 1000 nM) | cell viability (Vero E6 [5]; 10000 nM) | drug sensitivity score (U2OS [6]) | drug sensitivity score (Caco-2 [7]) | drug sensitivity score (HepG2 [8]) | drug sensitivity score (Calu-3 [9]) | drug sensitivity score (Vero E6 [10]) | relative viability EC50 (U2OS [11]) | relative viability EC50 (Caco-2 [12]) | relative viability EC50 (HepG2 [13]) | relative viability EC50 (Calu-3 [14]) | relative viability EC50 (Vero E6 [15])
1 | NCCOB(c1ccccc1)c1ccccc1 [2-APB] | 96% | 95.6% | 100% | 100% | 104% | 91% | 93.3% | 98.5% | 94.3% | 104% | 96.8% | 112% | 91.2% | 93.4% | 92.1% | 101% | 96.3% | 99.1% | 105% | 103% | 110% | 108% | 97.4% | 101% | 105% | 0 | 0 | 0 | 0 | 0 | > 10 µM | > 10 µM | > 10 µM | > 10 µM | > 10 µM
2 | CC[N+](CC)(CC)CCC(O)(c1ccccc1)C1CCCCC1 (stereo not given) [tridihexethyl] | 101% | 94.5% | 97.1% | 106% | 103% | 100% | 92.8% | 102% | 92.7% | 110% | 99.8% | 108% | 92.5% | 89% | 112% | 104% | 104% | 96.9% | 103% | 106% | 96.4% | 93.6% | 97.2% | 97.6% | 103% | 0 | 0 | 0 | 0 | 0 | > 10 µM | > 10 µM | > 10 µM | > 10 µM | > 10 µM
3 | CCCCCCCCCCCCCCCCOc1nc2ccc(C)cc2c(=O)o1 [cetilistat] | 93.7% | 98.2% | 93.5% | 99.7% | 103% | 94.8% | 96.6% | 89.8% | 107% | 96.7% | 106% | 94% | 113% | 99.9% | 97.9% | 103% | 107% | 94.8% | 100% | 107% | 99.8% | 81.8% | 98% | 99.4% | 105% | 0 | 0 | 0 | 0 | 0 | > 10 µM | > 10 µM | > 10 µM | > 10 µM | > 10 µM
